# Assay results published in ChEMBL document CHEMBL2073787, “Isolation of a family of organic anion transporters from human liver and kidney” (Biochem Biophys Res Commun, 2001).
# Key:
# Assay type in all cases: functional, cell-based
# [1] = target: T1, Solute carrier family 22 member 7 (Homo sapiens, UniProt Q9Y694); test: TP_TRANSPORTER: inhibition of PAH uptake (alpha-KG: 500 uM) in OAT2-expressing EcR293 cells; details: ecr293, 500 µM
# T1 sequence (Q9Y694 whole entry): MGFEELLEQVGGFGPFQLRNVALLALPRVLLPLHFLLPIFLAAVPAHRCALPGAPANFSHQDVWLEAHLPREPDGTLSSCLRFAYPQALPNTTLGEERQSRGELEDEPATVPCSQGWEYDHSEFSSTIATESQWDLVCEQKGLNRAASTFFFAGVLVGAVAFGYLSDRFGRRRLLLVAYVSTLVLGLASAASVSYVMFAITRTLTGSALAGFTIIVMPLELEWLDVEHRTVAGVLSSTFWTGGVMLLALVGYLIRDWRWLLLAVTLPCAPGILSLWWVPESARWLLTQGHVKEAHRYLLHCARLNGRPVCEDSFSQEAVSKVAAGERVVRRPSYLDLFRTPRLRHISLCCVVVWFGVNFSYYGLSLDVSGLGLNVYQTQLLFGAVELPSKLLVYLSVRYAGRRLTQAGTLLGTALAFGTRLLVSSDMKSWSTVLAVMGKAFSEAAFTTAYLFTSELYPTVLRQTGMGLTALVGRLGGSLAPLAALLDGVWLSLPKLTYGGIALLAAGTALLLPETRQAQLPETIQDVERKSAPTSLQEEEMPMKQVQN
# [2] = target: T1, Solute carrier family 22 member 7; test: TP_TRANSPORTER: uptake in OAT2-expressing EcR293 cells
# [3] = target: T1, Solute carrier family 22 member 7; test: TP_TRANSPORTER: inhibition of PAH uptake (BSP: 100 uM) in OAT2-expressing EcR293 cells; details: ecr293, 100 µM
Activity [1],Activity [2],SMILES,Activity [3]
is not an inhibitor [-],substrate [+],O=C(O)CCC(=O)C(=O)O [ALPHA-KETOGLUTARIC ACID],–
–,substrate [+],Nc1ccc(C(=O)NCC(=O)O)cc1 [AMINOHIPPURIC ACID],–
–,substrate [+],CN(Cc1cnc2nc(N)nc(N)c2n1)c1ccc(C(=O)N[C@@H](CCC(=O)O)C(=O)O)cc1 [METHOTREXATE],–
–,–,O=C1OC(c2ccc(O)c(S(=O)(=O)[O-])c2)(c2ccc(O)c(S(=O)(=O)[O-])c2)c2c(Br)c(Br)c(Br)c(Br)c21.[Na+].[Na+] [SULFOBROMOPHTHALEIN SODIUM],inhibitor [+]
